Experimental data from PubChem BioAssay (NCI).
Several values for one entry are separate records, joined by “and”; a condition that tells them apart may be missing. Equal values may be shown once.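 Test compounds were applied to cells in 96-well plates for 48 hours at 5 doses. The concentration for 50% growth inhibition is given as GI50. The concentration for full growth arrest is given as TGI.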

Assays:
Assay in all cases: inhibition of tumour cell growth, NCI panel, 48 h
SNB-75 CNS = test system: SNB-75 CNS
SK-MEL-2 melanoma = test system: SK-MEL-2 melanoma
EKVX NSCLC = test system: EKVX NSCLC
UACC-62 melanoma = test system: UACC-62 melanoma
SR leukemia = test system: SR leukemia
SK-MEL-28 melanoma = test system: SK-MEL-28 melanoma
MOLT-4 leukemia = test system: MOLT-4 leukemia
OVCAR-4 ovarian = test system: OVCAR-4 ovarian
OVCAR-5 ovarian = test system: OVCAR-5 ovarian
NCI-H522 lung = test system: NCI-H522 lung
SN12C renal = test system: SN12C renal
SK-MEL-5 melanoma = test system: SK-MEL-5 melanoma
DU-145 prostate = test system: DU-145 prostate
MCF7 breast = test system: MCF7 breast
MALME-3M melanoma = test system: MALME-3M melanoma
SF-295 CNS = test system: SF-295 CNS
MDA-N = test system: MDA-N
RPMI-8226 leukemia = test system: RPMI-8226 leukemia
HOP-62 NSCLC = test system: HOP-62 NSCLC
U251 CNS = test system: U251 CNS
786-0 renal = test system: 786-0 renal
HCT-15 colon = test system: HCT-15 colon
OVCAR-3 ovarian = test system: OVCAR-3 ovarian
SK-OV-3 ovarian = test system: SK-OV-3 ovarian
ACHN renal = test system: ACHN renal
M14 melanoma = test system: M14 melanoma
COLO 205 colon = test system: COLO 205 colon
IGROV1 ovarian = test system: IGROV1 ovarian
SF-539 CNS = test system: SF-539 CNS
HCC-2998 colon = test system: HCC-2998 colon
CCRF-CEM leukemia = test system: CCRF-CEM leukemia
UO-31 renal = test system: UO-31 renal
SW-620 colon = test system: SW-620 colon
LOX IMVI melanoma = test system: LOX IMVI melanoma
TK-10 renal = test system: TK-10 renal
A549 NSCLC = test system: A549 NSCLC
NCI/ADR-RES ovarian = test system: NCI/ADR-RES ovarian
RXF 393 renal = test system: RXF 393 renal
HT29 colon = test system: HT29 colon
SF-268 CNS = test system: SF-268 CNS
MDA-MB-435 = test system: MDA-MB-435
NCI-H226 lung = test system: NCI-H226 lung
NCI-H460 lung = test system: NCI-H460 lung
KM12 colon = test system: KM12 colon
K-562 leukemia = test system: K-562 leukemia
MDA-MB-231 breast = test system: MDA-MB-231 breast
CAKI-1 renal = test system: CAKI-1 renal
HOP-92 NSCLC = test system: HOP-92 NSCLC
UACC-257 melanoma = test system: UACC-257 melanoma
HL-60(TB) leukemia = test system: HL-60(TB) leukemia
NCI-H23 lung = test system: NCI-H23 lung
PC-3 prostate = test system: PC-3 prostate
OVCAR-8 ovarian = test system: OVCAR-8 ovarian

COc1cc([C@@H]2c3cc4c(cc3C[C@H]3COC(=O)[C@@H]32)OCO4)cc2c1OCO2
TGI (SNB-75 CNS): > 100000 nM
TGI (SK-MEL-2 melanoma): < 10 nM
TGI (EKVX NSCLC): > 100000 nM
TGI (UACC-62 melanoma): > 100000 nM
TGI (SR leukemia): < 10 nM
TGI (SK-MEL-28 melanoma): > 100000 nM
TGI (MOLT-4 leukemia): > 100000 nM
TGI (OVCAR-4 ovarian): > 100000 nM
TGI (OVCAR-5 ovarian): > 100000 nM
TGI (NCI-H522 lung): > 100000 nM
TGI (SN12C renal): > 100000 nM
TGI (SK-MEL-5 melanoma): < 10 nM
TGI (DU-145 prostate): > 100000 nM
TGI (MCF7 breast): > 100000 nM
TGI (MALME-3M melanoma): > 100000 nM
TGI (SF-295 CNS): < 10 nM
TGI (MDA-N): < 10 nM
TGI (RPMI-8226 leukemia): > 100000 nM
TGI (HOP-62 NSCLC): > 82000 nM
TGI (U251 CNS): > 100000 nM
TGI (786-0 renal): > 59800 nM
TGI (HCT-15 colon): > 100000 nM
TGI (OVCAR-3 ovarian): < 10 nM
TGI (SK-OV-3 ovarian): > 100000 nM
TGI (ACHN renal): > 100000 nM
TGI (M14 melanoma): > 100000 nM
TGI (COLO 205 colon): 14.9 nM
TGI (IGROV1 ovarian): 48 nM
TGI (SF-539 CNS): < 10 nM
TGI (HCC-2998 colon): < 10 nM
TGI (CCRF-CEM leukemia): 97700 nM
TGI (UO-31 renal): > 100000 nM
TGI (SW-620 colon): > 100000 nM
TGI (LOX IMVI melanoma): > 68200 nM
TGI (TK-10 renal): 3480 nM
TGI (A549 NSCLC): > 100000 nM
TGI (NCI/ADR-RES ovarian): < 10 nM
TGI (RXF 393 renal): > 100000 nM
TGI (HT29 colon): < 10 nM
TGI (SF-268 CNS): > 100000 nM
TGI (MDA-MB-435): < 10 nM
TGI (NCI-H226 lung): < 10 nM
TGI (NCI-H460 lung): 330 nM
TGI (KM12 colon): 3200 nM
TGI (K-562 leukemia): > 40000 nM
TGI (MDA-MB-231 breast): < 22.4 nM

CCC1(O)CC(OC2CC(N(C)C)C(OC3CC(O)C(OC4CCC(=O)C(C)O4)C(C)O3)C(C)O2)c2c(O)c3c(c(O)c2C1C(=O)OC)C(=O)c1cccc(O)c1C3=O (stereo not drawn)
TGI (SK-MEL-2 melanoma): 24.7 nM
TGI (CAKI-1 renal): 9.8 nM
TGI (UACC-62 melanoma): 23.5 nM
TGI (SK-MEL-28 melanoma): 83.7 nM and 57.1 nM
TGI (OVCAR-4 ovarian): 210 nM
TGI (OVCAR-5 ovarian): 73.5 nM and 722 nM
TGI (HOP-92 NSCLC): 763 nM and 2170 nM
TGI (NCI-H522 lung): 54.9 nM
TGI (SN12C renal): 175 nM
TGI (SK-MEL-5 melanoma): 26.1 nM
TGI (DU-145 prostate): 124 nM
TGI (UACC-257 melanoma): 91.5 nM
TGI (MCF7 breast): 1020 nM
GI50 (MALME-3M melanoma): 10.6 nM
TGI (MALME-3M melanoma): 66.7 nM and 26.7 nM
TGI (SF-295 CNS): 121 nM and 330 nM
TGI (MDA-N): 107 nM and 14.2 nM
TGI (RPMI-8226 leukemia): 75.5 nM
TGI (HOP-62 NSCLC): 138 nM and 119 nM
TGI (U251 CNS): 1420 nM
TGI (786-0 renal): 218 nM and 449 nM
TGI (HCT-15 colon): 54.3 nM and 90 nM
TGI (OVCAR-3 ovarian): 10300 nM
TGI (M14 melanoma): 13 nM
TGI (COLO 205 colon): 124 nM
TGI (IGROV1 ovarian): 28.1 nM
TGI (SF-539 CNS): 127 nM and 65.3 nM
TGI (HCC-2998 colon): 40 nM
TGI (CCRF-CEM leukemia): 32.8 nM
TGI (UO-31 renal): 29.2 nM
TGI (HL-60(TB) leukemia): 49.6 nM
TGI (SW-620 colon): 39.4 nM
TGI (TK-10 renal): 392 nM and 211 nM
TGI (NCI-H23 lung): 112 nM and 31 nM
TGI (HT29 colon): 103 nM and 14.7 nM
TGI (SF-268 CNS): 320 nM and 973 nM
TGI (MDA-MB-435): 101 nM
TGI (KM12 colon): 1280 nM
TGI (PC-3 prostate): 252 nM and 132 nM
TGI (OVCAR-8 ovarian): 900 nM and 187 nM
TGI (K-562 leukemia): 12.5 nM
TGI (MDA-MB-231 breast): 280 nM and 229 nM
